According to patent US11459296B2, “Antibacterial compounds” (INFEX Therapeutics Limited, priority 2018, dated 2022):
Structures can show the parent of a compound that is named as a salt.

Experiments:
[1] = Cytotoxicity Assay (CellTiter-Glo); format: cell-based; conditions: human, Hep G2 cells (ATCC HB-8065); 24 h exposure, cell viability; read-out: HepG2 CC50
Method: Cytotoxicity was evaluated in human Hep G2 cells (ATCC HB-8065) seeded at a density of 2×10^5 cells per well and incubated for 24 h at 37° C., 5% CO2. Cells were exposed to a doubling dilution series of test article. After 24 h exposure, the viability of the cells was determined using CellTiter-Glo® (Promega, Wis., USA) according to the manufacturer's instructions. Results are reported as the concentration of test article required to reduce cell viability by 50% (CC50).

NDM-1 = NDM-1 (Klebsiella pneumoniae, UniProt C7C422); assay: metallo-β-lactamase inhibition assay (nitrocefin); format: biochemical; conditions: 1.5 nM NDM-1, 100 μM nitrocefin, 37° C., pH 7.5
Sequence of NDM-1 (C7C422 whole entry, looked up, species assumed): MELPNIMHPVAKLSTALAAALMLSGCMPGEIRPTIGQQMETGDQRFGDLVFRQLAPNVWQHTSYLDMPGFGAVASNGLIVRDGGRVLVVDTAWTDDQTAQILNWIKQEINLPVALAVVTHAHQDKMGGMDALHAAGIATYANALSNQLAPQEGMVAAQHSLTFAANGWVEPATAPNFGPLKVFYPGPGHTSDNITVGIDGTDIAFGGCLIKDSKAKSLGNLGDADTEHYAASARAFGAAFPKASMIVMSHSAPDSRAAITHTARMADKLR
Method: Compounds of the invention were tested in a metallo-β-lactamase inhibition assay to investigate mechanism of action of the compounds. Results are reported as the concentration of test article required to inhibit enzyme activity by 50% (IC50).
Inhibition of metallo-β-lactamase enzyme function was performed at 37° C. in buffer at pH 7.5 (50 mM HEPES, 150 mM NaCl, 0.1 mM ZnSO4, 20 μg/mL PEG4000), containing 1.5 nM NDM-1, 100 μM nitrocefin, and a range of concentrations of compound. Absorbance at 490 nm was measured using a BMG LABTECH FLUOstar Omega microplate reader every minute for 30 minutes. IC50S were determined from the average increase in OD per minute versus the Log 10 concentration of compound using GraphPad Prism.

E. coli NCTC13476 IMP [2] = assay: Imipenem combination MIC, broth microdilution; format: cell-based; conditions: imipenem only (baseline)
Method: (§1) MICs were determined by exposing bacteria to serial dilutions of antibacterial agents in MHB-II (cation-adjusted Mueller-Hinton Broth pH 7.4) according to Clinical and Laboratory Standards Institute (CLSI) broth microdilution guidelines (Cockerill et al., 2012).
(§2) Combination MIC were performed as described for MIC determinations with the addition of 4 mg/L test article to MHB-II.
(§3) Compounds of the invention were also tested in combination with imipenem.

A. baumannii SG698 NDM-1 [3] = assay: Imipenem combination MIC, broth microdilution; format: cell-based; conditions: imipenem only (baseline)
Method: as §1, §2, §3

[4] = system: K. pneumoniae ATCC BAA2146 NDM-1; assay: Imipenem combination MIC, broth microdilution; format: cell-based; conditions: imipenem only (baseline)
Method: as §1, §2, §3

[5] = system: K. pneumoniae NCTC13440 VIM-1; assay: Imipenem combination MIC, broth microdilution; format: cell-based; conditions: imipenem only (baseline)
Method: as §1, §2, §3

[6] = system: E. coli ATCCBAA-2452 NDM-1; assay: Imipenem combination MIC, broth microdilution; format: cell-based; conditions: imipenem only (baseline)
Method: as §1, §2, §3

E. coli NCTC13476 IMP [7] = assay: Meropenem combination MIC, broth microdilution; format: cell-based; conditions: meropenem only (baseline)
Method: as §1, §2

A. baumannii SG698 NDM-1 [8] = assay: Meropenem combination MIC, broth microdilution; format: cell-based; conditions: meropenem only (baseline)
Method: as §1, §2

[9] = system: K. pneumoniae ATCC BAA2146 NDM-1; assay: Meropenem combination MIC, broth microdilution; format: cell-based; conditions: meropenem only (baseline)
Method: as §1, §2

[10] = system: K. pneumoniae NCTC13440 VIM-1; assay: Meropenem combination MIC, broth microdilution; format: cell-based; conditions: meropenem only (baseline)
Method: as §1, §2

[11] = system: E. coli ATCCBAA-2452 NDM-1; assay: Meropenem combination MIC, broth microdilution; format: cell-based; conditions: meropenem only (baseline)
Method: as §1, §2

[12] = system: K. pneumoniae NCTC13439 VIM-1; assay: Meropenem combination MIC, broth microdilution; format: cell-based; conditions: meropenem only (baseline)
Method: as §1, §2

| Compound | CC50 at 24 h [1] [µg/mL] | IC50 (NDM-1) [µM] | other results |
| --- | --- | --- | --- |
| NS(=O)(=O)n1ccc(-c2ccc(F)cc2)c1C(=O)O [Example 18, 3-(4-Fluorophenyl)-1-sulfamoyl-pyrrole-2-carboxylic acid, sodium salt] | > 256 | 0.725 | – |
| NS(=O)(=O)n1ccc(-c2cccc(F)c2)c1C(=O)O [Example 19, 3-(3-Fluorophenyl)-1-sulfamoyl-pyrrole-2-carboxylic acid] | > 256 | 1.53 | – |
| Nc1ncc(-c2ccn(S(N)(=O)=O)c2C(=O)O)cc1F [Example 21, 3-(6-Amino-5-fluoro-3-pyridyl)-1-sulfamoyl-pyrrole-2-carboxylic acid] | > 256 | 3.36 | – |
| Nc1cncc(-c2ccn(S(N)(=O)=O)c2C(=O)O)c1 [Example 22, 3-(5-Amino-3-pyridyl)-1-sulfamoyl-pyrrole-2-carboxylic acid] | > 256 | 2.09 | – |
| NS(=O)(=O)n1ccc(-c2ccc(NS(=O)(=O)C3CC3)cc2)c1C(=O)O [Example 23, 3-[4-(Cyclopropylsulfonylamino)phenyl]-1-sulfamoyl-pyrrole-2-carboxylic acid] | > 256 | 0.548 | – |
| NS(=O)(=O)n1ccc(-c2ccc(C3CCNCC3)cc2)c1C(=O)O [Example 34, 3-[4-(Piperidin-4-yl)phenyl]-1-sulfamoyl-1H-pyrrole-2-carboxylic acid hydrochloride] | > 256 | 0.151 | – |
| NCCNS(=O)(=O)c1ccc(-c2ccn(S(N)(=O)=O)c2C(=O)O)cc1 [Example 36, 3-{4-[(2-Aminoethyl)sulfamoyl]phenyl}-1-sulfamoyl-1H-pyrrole-2-carboxylic acid] | > 256 | 1.01 | – |
| Cn1c(N)nc2c(-c3ccn(S(N)(=O)=O)c3C(=O)O)cccc21 [Example 46, 3-(2-Amino-1-methyl-benzimidazol-4-yl)-1-sulfamoyl-pyrrole-2-carboxylic acid hydrochloride] | > 256 | 2.79 | – |
| NS(=O)(=O)n1ccc(-c2ccc(=O)[nH]c2)c1C(=O)O [Example 52, 3-(6-Oxo-1,6-dihydropyridin-3-yl)-1-sulfamoyl-1H-pyrrole-2-carboxylic acid, Sodium Salt] | > 256 | 2.69 | – |
| CC(=O)N1CCC(c2ccn(S(N)(=O)=O)c2C(=O)O)CC1 [Example 58, 3-(1-Acetylpiperidin-4-yl)-1-sulfamoyl-1H-pyrrole-2-carboxylic acid] | > 256 | 1.31 | – |
| NCC(=O)N1CCC(c2ccn(S(N)(=O)=O)c2C(=O)O)CC1 [Example 62, 3-[1-(2-Aminoacetyl)-4-piperidyl]-1-sulfamoyl-pyrrole-2-carboxylic acid] | > 256 | 1.3 | – |
| NS(=O)(=O)n1ccc(OCC2CC2)c1C(=O)O [Example 72, 3-(Cyclopropylmethoxy)-1-sulfamoyl-pyrrole-2-carboxylic acid, Sodium Salt] | > 256 | 3.89 | – |
| NS(=O)(=O)n1ccc(-n2cccc2)c1C(=O)O [Example 73, 3-Pyrrol-1-yl-1-sulfamoyl-pyrrole-2-carboxylic acid, Sodium Salt] | > 256 | 2.57 | – |
| Cn1cc(-c2ccn(S(N)(=O)=O)c2-c2nnn[nH]2)cn1 [Example 76, 3-(1-Methyl-1H-pyrazol-4-yl)-2-(1H-tetrazol-5-yl)-1H-pyrrole-1-sulfonamide] | > 256 | 1.18 | – |
| Nc1ccc(-c2ccn(S(N)(=O)=O)c2-c2nnn[nH]2)cn1 [Example 77, 3-(6-Aminopyridin-3-yl)-2-(1H-tetrazol-5-yl)-1H-pyrrole-1-sulfonamide] | > 256 | 0.506 | – |
| C[C@@H](O)[C@H]1C(=O)N2C(C(=O)O)=C(SCCN=CN)C[C@H]12 [Imipenem, imipenem] | – | – | Imipenem MIC II E. coli NCTC13476 IMP (E. coli NCTC13476 IMP [2]): C (C≤5); Imipenem MIC IV A. baumannii SG698 NDM-1 (A. baumannii SG698 NDM-1 [3]): F (F≤80); Imipenem MIC III K. pneumoniae ATCC BAA2146 NDM-1 [4]: E (E≤40); Imipenem MIC V K. pneumoniae NCTC13440 VIM-1 [5]: D (D≤10); Imipenem MIC I E. coli ATCCBAA-2452 NDM-1 [6]: D (D≤10) |
| C[C@@H](O)[C@H]1C(=O)N2C(C(=O)O)=C(S[C@@H]3CN[C@H](C(=O)N(C)C)C3)[C@H](C)[C@H]12 [Meropenem, meropenem] | – | – | Meropenem MIC (μg/mL) II E. coli NCTC13476 IMP (E. coli NCTC13476 IMP [7]): 4 µg/mL; Meropenem MIC (μg/mL) IV A. baumannii SG698 NDM-1 (A. baumannii SG698 NDM-1 [8]): 8 µg/mL; Meropenem MIC (μg/mL) III K. pneumoniae ATCC BAA2146 NDM-1 [9]: 16 µg/mL; Meropenem MIC (μg/mL) V K. pneumoniae NCTC13440 VIM-1 [10]: 1 µg/mL; Meropenem MIC (μg/mL) I E. coli ATCCBAA-2452 NDM-1 [11]: 1 µg/mL; Meropenem MIC (μg/mL) VII K. pneumoniae NCTC13439 VIM-1 [12]: 0.5 µg/mL |
